The target in one assay is PIK3CD (Human) (UniProt O00329). Description: Assessment of PIK3CD Kinase Activity.
The target in the next assay is PIK3CA (human) (UniProt P42336). Put plainly: Assessment of PIK3CA Kinase Activity.
Another assay concerns the target PIK3CB (Human) (UniProt P42338). Description: Assessment of PIK3CB Kinase Activity.

In the Kinase Knowledgebase extract (Sharma et al. 2016) one finds IC50 data, which are given here for 31 compounds.

One may read the IC50 as the concentration that gives 50% inhibition.

Sequence of PIK3CD (Human) (O00329 whole entry, looked up): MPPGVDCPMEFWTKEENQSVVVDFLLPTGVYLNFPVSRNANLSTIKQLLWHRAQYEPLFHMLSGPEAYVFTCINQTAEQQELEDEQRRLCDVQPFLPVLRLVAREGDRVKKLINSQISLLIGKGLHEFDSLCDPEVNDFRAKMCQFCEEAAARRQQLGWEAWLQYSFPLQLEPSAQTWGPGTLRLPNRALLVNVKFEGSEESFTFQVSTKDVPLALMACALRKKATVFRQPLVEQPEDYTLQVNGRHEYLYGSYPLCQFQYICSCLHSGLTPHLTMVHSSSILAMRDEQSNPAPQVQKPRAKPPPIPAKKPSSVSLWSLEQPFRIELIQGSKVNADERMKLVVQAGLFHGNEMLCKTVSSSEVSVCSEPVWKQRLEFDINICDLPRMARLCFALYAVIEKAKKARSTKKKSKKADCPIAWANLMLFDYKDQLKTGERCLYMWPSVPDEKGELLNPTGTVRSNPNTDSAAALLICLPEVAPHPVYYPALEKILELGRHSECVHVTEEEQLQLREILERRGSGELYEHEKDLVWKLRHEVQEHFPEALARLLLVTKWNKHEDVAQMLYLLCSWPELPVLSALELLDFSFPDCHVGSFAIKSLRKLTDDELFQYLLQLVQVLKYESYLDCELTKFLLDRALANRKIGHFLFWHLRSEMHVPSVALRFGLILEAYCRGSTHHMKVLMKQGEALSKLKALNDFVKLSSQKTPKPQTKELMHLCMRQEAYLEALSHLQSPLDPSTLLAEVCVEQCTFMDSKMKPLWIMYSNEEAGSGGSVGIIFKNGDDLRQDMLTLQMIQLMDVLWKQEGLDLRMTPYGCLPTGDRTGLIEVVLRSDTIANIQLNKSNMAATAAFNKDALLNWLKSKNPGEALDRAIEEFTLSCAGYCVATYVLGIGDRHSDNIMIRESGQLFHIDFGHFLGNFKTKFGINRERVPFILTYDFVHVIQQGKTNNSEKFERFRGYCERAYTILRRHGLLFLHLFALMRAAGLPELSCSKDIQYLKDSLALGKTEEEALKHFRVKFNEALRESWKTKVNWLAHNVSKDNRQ
Sequence of PIK3CA (human) (P42336 whole entry, looked up): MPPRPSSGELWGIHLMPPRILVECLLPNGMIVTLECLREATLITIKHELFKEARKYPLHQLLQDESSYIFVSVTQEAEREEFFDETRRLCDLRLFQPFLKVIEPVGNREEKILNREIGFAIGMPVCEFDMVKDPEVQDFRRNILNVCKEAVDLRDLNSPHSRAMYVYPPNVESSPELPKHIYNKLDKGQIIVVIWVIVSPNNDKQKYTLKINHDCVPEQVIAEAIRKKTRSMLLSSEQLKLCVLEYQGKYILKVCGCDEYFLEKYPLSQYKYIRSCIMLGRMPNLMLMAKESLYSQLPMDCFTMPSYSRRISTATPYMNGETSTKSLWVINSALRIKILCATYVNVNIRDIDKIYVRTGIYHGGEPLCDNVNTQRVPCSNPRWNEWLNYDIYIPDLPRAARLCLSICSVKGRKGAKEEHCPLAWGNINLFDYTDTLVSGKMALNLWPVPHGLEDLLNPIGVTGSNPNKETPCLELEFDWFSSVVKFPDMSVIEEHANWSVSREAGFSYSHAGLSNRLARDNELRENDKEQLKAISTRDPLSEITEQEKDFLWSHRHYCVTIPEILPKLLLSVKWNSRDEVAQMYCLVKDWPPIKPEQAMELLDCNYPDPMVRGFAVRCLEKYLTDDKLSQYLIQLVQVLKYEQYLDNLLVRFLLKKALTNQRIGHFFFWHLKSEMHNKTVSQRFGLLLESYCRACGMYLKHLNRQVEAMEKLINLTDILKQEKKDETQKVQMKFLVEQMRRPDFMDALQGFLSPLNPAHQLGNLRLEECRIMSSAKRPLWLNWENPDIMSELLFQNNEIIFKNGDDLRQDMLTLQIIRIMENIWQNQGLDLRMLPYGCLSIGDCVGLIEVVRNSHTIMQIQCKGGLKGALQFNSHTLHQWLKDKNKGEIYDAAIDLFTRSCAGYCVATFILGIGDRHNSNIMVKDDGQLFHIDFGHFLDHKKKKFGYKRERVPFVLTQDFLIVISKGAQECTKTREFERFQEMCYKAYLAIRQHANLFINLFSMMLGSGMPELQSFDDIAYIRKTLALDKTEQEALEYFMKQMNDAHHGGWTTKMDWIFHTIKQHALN
Sequence of PIK3CB (Human) (P42338 whole entry, looked up): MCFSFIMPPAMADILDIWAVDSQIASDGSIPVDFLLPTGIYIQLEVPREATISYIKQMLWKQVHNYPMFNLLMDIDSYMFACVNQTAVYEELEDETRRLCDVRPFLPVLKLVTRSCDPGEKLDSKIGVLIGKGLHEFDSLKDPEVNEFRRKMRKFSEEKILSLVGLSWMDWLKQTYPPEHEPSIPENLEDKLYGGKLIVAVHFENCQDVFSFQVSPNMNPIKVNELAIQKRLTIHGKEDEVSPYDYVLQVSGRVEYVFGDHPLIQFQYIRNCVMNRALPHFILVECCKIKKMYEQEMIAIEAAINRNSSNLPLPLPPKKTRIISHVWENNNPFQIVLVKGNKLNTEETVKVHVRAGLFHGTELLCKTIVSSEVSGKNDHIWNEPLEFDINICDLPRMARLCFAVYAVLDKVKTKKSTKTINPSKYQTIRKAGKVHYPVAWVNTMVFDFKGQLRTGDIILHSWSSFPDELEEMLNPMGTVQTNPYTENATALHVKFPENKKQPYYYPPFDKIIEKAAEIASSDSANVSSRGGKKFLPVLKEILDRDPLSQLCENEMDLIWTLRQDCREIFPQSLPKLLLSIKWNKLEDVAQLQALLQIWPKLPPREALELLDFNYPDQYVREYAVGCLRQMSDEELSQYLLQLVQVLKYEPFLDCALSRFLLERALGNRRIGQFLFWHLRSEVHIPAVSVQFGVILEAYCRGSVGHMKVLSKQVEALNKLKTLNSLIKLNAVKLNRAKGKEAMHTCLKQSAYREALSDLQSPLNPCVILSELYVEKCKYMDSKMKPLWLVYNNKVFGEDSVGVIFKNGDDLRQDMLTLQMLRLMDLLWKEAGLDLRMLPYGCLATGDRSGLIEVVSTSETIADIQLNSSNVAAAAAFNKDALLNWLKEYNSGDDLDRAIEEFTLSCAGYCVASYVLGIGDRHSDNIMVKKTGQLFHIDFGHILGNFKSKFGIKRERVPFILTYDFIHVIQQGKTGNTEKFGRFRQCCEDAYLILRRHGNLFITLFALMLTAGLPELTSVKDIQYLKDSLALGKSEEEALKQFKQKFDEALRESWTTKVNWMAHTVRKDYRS

For `COc1cc(N)cc2c1nc(C(F)F)n2-c1nc(-c2cn[nH]c2)nc(N2CCOCC2)n1`, the IC50 on PIK3CD (Human) and against PIK3CA (human) was below 100 nM in each case.

In the case of `COc1cccc2c1nc(C(F)F)n2-c1nc(Nc2cnc(N(C)CCCN(C)C)nc2)nc(N2CCOCC2)n1`, the half-maximal inhibitory concentration (IC50) on PIK3CD (Human) and at PIK3CA (human) was below 100 nM throughout.

Turning to `COc1ncc(-c2cc(N3CCOCC3)nc(-n3c(C(F)F)nc4c(OC)cccc43)n2)cn1`, the IC50 on PIK3CD (Human) was 100 to 1000 nM; against PIK3CA (human) it was below 100 nM.

Consider `COc1cccc2c1nc(C(F)F)n2-c1nc(Nc2cnc(N(C)CCN(C)C)nc2)nc(N2CCOCC2)n1`, for which the IC50 against PIK3CD (Human) and against PIK3CA (human) was below 100 nM throughout.

For the compound `CS(=O)(=O)c1nc2ccccc2n1-c1nc(Nc2cccnc2)nc(N2CCOCC2)n1`, the IC50 on PIK3CD (Human) was below 100 nM; against PIK3CA (human), 100 to 1000 nM; against PIK3CB (Human), 100 to 1000 nM.

Consider `FC(F)c1nc2ccccc2n1-c1nc(Nc2ccncn2)nc(N2CCOCC2)n1`, for which the IC50 at PIK3CD (Human) and against PIK3CA (human) was below 100 nM in each case.

As to `CN(c1cncnc1)c1nc(N2CCOCC2)nc(-n2c(C(F)F)nc3ccccc32)n1`, the IC50 against PIK3CD (Human) and at PIK3CA (human) was below 100 nM throughout.

Take `COc1cccc2c1nc(C(F)F)n2-c1nc(Nc2ccc(N)nc2)nc(N2CCOCC2)n1`: the IC50 against PIK3CD (Human) is below 100 nM; on PIK3CA (human) it was below 100 nM; at PIK3CB (Human) it was 100 to 1000 nM.

Take `COc1cc(N)cc2c1nc(C(F)F)n2-c1nc(-c2cccnc2)cc(N2CCOCC2)n1`: the IC50 against PIK3CD (Human) and at PIK3CA (human) was below 100 nM each time.

`COc1cccc2c1nc(C(F)F)n2-c1nc(Nc2cnc(Cl)nc2)nc(N2CCOCC2)n1`: the IC50 against PIK3CD (Human) and on PIK3CA (human) was below 100 nM in each case.

Consider `CN(Cc1ccccc1)c1nc(N2CCOCC2)nc(-n2c(C(F)F)nc3ccccc32)n1`, for which the IC50 is below 100 nM against PIK3CD (Human) and 100 to 1000 nM at PIK3CB (Human).

For `FC(F)c1nc2ccccc2n1-c1nc(-c2cccnc2)cc(N2CCOCC2)n1`, the IC50 against PIK3CD (Human) and on PIK3CA (human) was 100 to 1000 nM throughout.

`FC(F)c1nc2ccccc2n1-c1nc(Sc2ccccc2)nc(N2CCOCC2)n1`: the IC50 against PIK3CA (human) and against PIK3CB (Human) was above 10000 nM throughout.

On to `COc1cccc2c1nc(C(F)F)n2-c1nc(-c2cncnc2)cc(N2CCOCC2)n1`, for which the IC50 on PIK3CD (Human) was 100 to 1000 nM; on PIK3CA (human), below 100 nM.

As to `FC(F)c1nc2ccccc2n1-c1nc(Nc2cnccn2)nc(N2CCOCC2)n1`, the IC50 against PIK3CD (Human) and against PIK3CA (human) was below 100 nM in each case.

Take `COc1cccc2c1nc(C(F)F)n2-c1nc(-c2cccnc2)nc(N2CCOCC2)n1`: the IC50 on PIK3CD (Human) and against PIK3CA (human) was below 100 nM in each case.

For `COc1ccncc1Nc1nc(N2CCOCC2)nc(-n2c(C(F)F)nc3c(OC)cccc32)n1`, the IC50 on PIK3CD (Human) is below 100 nM; against PIK3CA (human) it was below 100 nM; at PIK3CB (Human), 100 to 1000 nM.

In the case of `COc1cccc2c1nc(C(F)F)n2-c1nc(N2CCOCC2)c2ncn(-c3cncnc3)c2n1`, the IC50 on PIK3CD (Human) and against PIK3CA (human) was below 100 nM in each case.

At PIK3CA (human), `FC(F)c1nc2ccccc2n1-c1nc(NCc2ccncc2)nc(N2CCOCC2)n1` returned an IC50 of 100 to 1000 nM.

For the compound `COc1cccc2c1nc(C(F)F)n2-c1nc(-c2cccnc2)cc(N2CCOCC2)n1`, the IC50 at PIK3CD (Human) and at PIK3CA (human) was below 100 nM throughout.

On to `COc1cc(Nc2nc(N3CCOCC3)nc(-n3c(C(F)F)nc4c(OC)cccc43)n2)ncn1`, for which the values for the IC50 against PIK3CD (Human), against PIK3CA (human) and against PIK3CB (Human) were below 100 nM, below 100 nM and 100 to 1000 nM, respectively.

For `COc1cccc2c1nc(C(F)F)n2-c1nc(-c2ccc(N)nc2)nc(N2CCOCC2)n1`, the IC50 against PIK3CD (Human) and on PIK3CA (human) was below 100 nM each time.

Turning to `COc1cccc2c1nc(C(F)F)n2-c1nc(N2CCOCC2)nc(N(C)c2cncnc2)n1`, the IC50 on PIK3CD (Human) and against PIK3CA (human) was below 100 nM throughout.

On to `FC(F)c1nc2ccccc2n1-c1nc(Nc2ccccn2)nc(N2CCOCC2)n1`, for which the IC50 against PIK3CD (Human) and against PIK3CA (human) was below 100 nM throughout.

As to `COc1cccc2c1nc(C(F)F)n2-c1nc(Nc2ccc(Cl)nc2)nc(N2CCOCC2)n1`, the results for the half-maximal inhibitory concentration (IC50) against PIK3CD (Human), against PIK3CA (human) and at PIK3CB (Human) were below 100 nM, below 100 nM and 100 to 1000 nM, respectively.

On to `FC(F)c1nc2ccccc2n1-c1nc(NCc2ccccc2)nc(N2CCOCC2)n1`, for which the figures for the IC50 against PIK3CD (Human), on PIK3CA (human) and against PIK3CB (Human) were below 100 nM, 100 to 1000 nM and below 100 nM, respectively.

As to `CSc1nc2ccccc2n1-c1nc(Nc2cccnc2)nc(N2CCOCC2)n1`, the IC50 on PIK3CD (Human) is 100 to 1000 nM.

For the compound `FC(F)c1nc2ccccc2n1-c1nc(Nc2cccnc2)nc(N2CCOCC2)n1`, the IC50 on PIK3CD (Human), on PIK3CA (human) and at PIK3CB (Human) was below 100 nM each time.

As for `COc1cccc2c1nc(C(F)F)n2-c1nc(Nc2cncnc2)nc(N2CCOCC2)n1`, the IC50 is below 100 nM on PIK3CD (Human), below 100 nM against PIK3CA (human) and 100 to 1000 nM on PIK3CB (Human).

As to `COc1ccncc1Nc1nc(N2CCOCC2)nc(-n2c(C(F)F)nc3ccccc32)n1`, the IC50 was below 100 nM on PIK3CD (Human), below 100 nM at PIK3CA (human) and 100 to 1000 nM on PIK3CB (Human).

Regarding `FC(F)c1nc2ccccc2n1-c1nc(-c2cccnc2)nc(N2CCOCC2)n1`, the IC50 was below 100 nM against PIK3CD (Human), below 100 nM against PIK3CA (human) and 100 to 1000 nM on PIK3CB (Human).
